Reference: US4425356A, “Lankacidin derivatives used in swine husbandry” (Takeda Chemical Industries, Ltd., priority 1980, dated 1984)
≈ marks a conversion by molar mass, not a printed value. Where “and” joins values, the source holds several entries; their conditions need not be identical. Equal values may be shown once. Entries after “also recorded” stand apart in the source; their conditions may differ. Read-outs that look alike come from different tables or passages of the source.

Experiments:
Treponema hyodysenteriae = assay: in vitro antibacterial activity (MIC, agar dilution method), Test Examples 1-3; type: cell-based
How it was run: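 MICs were found by agar dilution against field isolates from bloody mucous faeces of dysenteric pigs in Japan. The inoculum was a loopful of 10^6 CFU/ml suspension. Plates were incubated anaerobically (GasPak) at 37 °C.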

[1] = acute toxicity tests with mice; details: mouse, in vivo
From the text: The toxicity of compound (I) in animals is very low.

[2] = test system: Treponema hyodysenteriae 78/A strain; assay: efficacy against swine dysentery under experimental infection conditions in pigs (drug in feed), Test Examples 5-7; type: in vivo, Landrace pigs; details: for Number of days on which diarrhea was observed / Number of days on which mucous bloody stool was observed / Number of pigs showing signs of infection/number of pigs used: 21-day test period; for Body weight gain / Feed conversion / Feed intake: 21 day period; for Body weight gain / Feed conversion / Feed intake / Body weight at the time of completion of test: mean per head
How it was run: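 Landrace pigs, 4 per group, fed starter feed with drug admixed (100 ppm or lower; 10 ppm for lankacidin A and C 14-propionate) ad libitum; infected at 7 weeks after 24 h fast by 100 ml intragastric inoculum of two-fold diluted colonic contents/mucosa from 78/A-infected pigs. Fed 21 days post-infection; per-head means to autopsy.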

[3] = test system: Treponema hyodysenteriae 78/A strain; assay: therapeutic administration in pigs showing clinical signs of swine dysentery, Test Examples 8-9; type: in vivo; details: for No. of pathogen (in feces) / Condition of feces: individual pig
Protocol: This test was conducted under the conditions of so-called therapeutic administration. […] The method of infection was the same as in Test Example 5. […] Simultaneously with showing of the signs, the pigs were provided with a feed containing 50 ppm of lankacidin C. […] After 2 days, the viable count for the pathogen in feces was below the detection limit (10^2 CFU/g).
The condition of feces was rated at one of the following four classes:
.circle. normal; loose; diarrheal; .circleincircle. mucous and bloody
count is below the detection limit (10^2 CFU/g).
The symbol * indicates those days on which the feed containing 50 ppm of
lankacidin C was given.
Lankacidins were tested for therapeutic effects in swine dysentery under therapeutic conditions in the same manner as in Test Example 8. The effects were judged based on the condition of feces.
The condition of feces was rated at one of the following four classes;
The symbol * indicates the days on which the feed containing 50 ppm of th

[4] = 50 ppm in feed, autopsy 15 days after manifestation of signs

SMILES: CC(=O)C(=O)NC1C=C(C)C=CC(O)CC=C(C)C=CC(O)CC2OC(=O)C1(C)C(=O)C2C (centres unmarked) [Lankacidin C, lankacidin C]
- MIC (Treponema hyodysenteriae; Brachyspira hyodysenteriae, 48 h, read-out: Minimum Inhibitory Concentration, strain DJ70P1, 37° C., 2 days, anaerobic): 3.13 µg/mL (≈ 6.81 µM)
- in vitro antibacterial activity (in words) (Treponema hyodysenteriae; against Treponema hyodysenteriae): strong antibacterial activity
- LD50 ([1]; ip, intraperitoneal, read-out: intraperitoneal LD50): 4500 mg/kg
- LD50 ([1]; oral, read-out: oral LD50): > 10000 mg/kg
- Number of pigs from which the pathogen was detected, in colonic mucosa ([2]; 10 ppm in feed): 0
- Number of pigs from which the pathogen was detected, in feces ([2]; 10 ppm in feed): 0
- Number of pigs showing colonic lesions ([2]; 10 ppm in feed): 0
- Number of days on which diarrhea was observed ([2]; 10 ppm in feed): 0 days
- Number of days on which mucous bloody stool was observed ([2]; 10 ppm in feed): 0 days
- Number of pigs showing signs of infection/number of pigs used ([2]; 10 ppm in feed): 0/4
- Body weight gain ([2]; 10 ppm in feed): 484 grams/day
- Feed conversion ([2]; 10 ppm in feed): 1.81
- Feed intake ([2]; 10 ppm in feed): 18.4 kg
- Body weight at the time of completion of test ([2]; 10 ppm in feed): 20.7 kg
- Number of pigs from which the pathogen was detected, in colonic mucosa ([2]; 50 ppm in feed): 0
- Number of pigs from which the pathogen was detected, in feces ([2]; 50 ppm in feed): 0
- Number of pigs showing colonic lesions ([2]; 50 ppm in feed): 0
- Number of days on which diarrhea was observed ([2]; 50 ppm in feed): 0 days
- Number of days on which mucous bloody stool was observed ([2]; 50 ppm in feed): 0 days
- Number of pigs showing signs of infection/number of pigs used ([2]; 50 ppm in feed): 0/4
- Body weight gain ([2]; 50 ppm in feed): 673 grams/day
- Feed conversion ([2]; 50 ppm in feed): 1.79
- Feed intake ([2]; 50 ppm in feed): 25.3 kg
- Body weight at the time of completion of test ([2]; 50 ppm in feed): 25.3 kg
- Number of pigs from which the pathogen was detected, in colonic mucosa ([2]; 100 ppm in feed): 0
- Number of pigs from which the pathogen was detected, in feces ([2]; 100 ppm in feed): 0
- Number of pigs showing colonic lesions ([2]; 100 ppm in feed): 0
- Number of days on which diarrhea was observed ([2]; 100 ppm in feed): 0 days
- Number of days on which mucous bloody stool was observed ([2]; 100 ppm in feed): 0 days
- Number of pigs showing signs of infection/number of pigs used ([2]; 100 ppm in feed): 0/4
- Body weight gain ([2]; 100 ppm in feed): 708 grams/day and 689 grams/day
- Feed conversion ([2]; 100 ppm in feed): 1.85 and 1.77
- Feed intake ([2]; 100 ppm in feed): 27.5 kg and 25.6 kg
- Body weight at the time of completion of test ([2]; 100 ppm in feed): 28.5 kg and 25.5 kg
- effect against swine dysentery (in words) ([2]; pig, in vivo): excellent effect against swine dysentery; also recorded: more excellent anti-swine-dysentery agent than carbadox
- therapeutic effect in swine dysentery (in words) ([3]; 50 ppm in feed): therapeutically effective
- viable count for the pathogen in feces ([3]; 50 ppm in feed, after 2 days): < 10^2 CFU/g
- colonic lesions (autopsy) [3, 4]: negative
- pathogen at autopsy (in words) [3, 4]: without the pathogen being detected
- colonic lesions (autopsy) ([3]; 50 ppm in feed, autopsy 15 days after manifestation of signs, listed as lankacidin C): no colonic lesions
- No. of pathogen (in feces) ([3]; 50 ppm in feed, day 0): 8.0 log/g and 6.0 log/g and 7.1 log/g and 6.8 log/g
- No. of pathogen (in feces) ([3]; 50 ppm in feed, day 1): 4.3 log/g and 2.3 log/g and 4.4 log/g and 2.0 log/g
- mucous bloody diarrhea / passage (in words) ([3]; 50 ppm in feed, day following the administration): mucous bloody diarrhea was no more observed on the day following the administration but the passage was loose or normal
- Condition of feces ([3]; Table 8, 50 ppm in feed days 0-6, day 7): .circle.
- Condition of feces ([3]; Table 8, 50 ppm in feed days 0-6, day 8): .circle.
- Condition of feces ([3]; Table 8, 50 ppm in feed days 0-6, day 9): .circle.
- Condition of feces ([3]; Table 8, 50 ppm in feed days 0-6, day 10): .circle.
- Condition of feces ([3]; Table 8, 50 ppm in feed days 0-6, day 11): .circle.
- Condition of feces ([3]; Table 8, 50 ppm in feed days 0-6, day 12): .circle.
- Condition of feces ([3]; Table 8, 50 ppm in feed days 0-6, day 13): .circle.
- Condition of feces ([3]; Table 8, 50 ppm in feed days 0-6, day 14): .circle.
- Condition of feces ([3]; Table 8, 50 ppm in feed days 0-6, day 15): .circle.
- Condition of feces ([3]; Table 8, 50 ppm in feed, day 0 after manifestation of signs): .circleincircle.
- Condition of feces ([3]; Table 8, 50 ppm in feed, day 1): .circle.
- Condition of feces ([3]; Table 8, 50 ppm in feed, day 2): .circle.
- Condition of feces ([3]; Table 8, 50 ppm in feed, day 3): .circle.
- Condition of feces ([3]; Table 8, 50 ppm in feed, day 4): .circle.
- Condition of feces ([3]; Table 8, 50 ppm in feed, day 5): .circle.
- Condition of feces ([3]; Table 8, 50 ppm in feed, day 6): .circle.
- Condition of feces ([3]; Table 9, 50 ppm in feed, day 0 after manifestation of signs): .circleincircle.
- Condition of feces ([3]; Table 9, 50 ppm in feed, day 1): .circle.
- Condition of feces ([3]; Table 9, 50 ppm in feed, day 2): .circle.
- Condition of feces ([3]; Table 9, 50 ppm in feed, day 3): .circle.
- Condition of feces ([3]; Table 9, 50 ppm in feed, day 4): .circle.
- Condition of feces ([3]; Table 9, 50 ppm in feed, day 5): .circle.
